# Measurements from ChEMBL document CHEMBL3734663, “Solid-phase synthesis and in vitro biological activity of a Thr4→Ser4 analog of daptomycin” (2015).
# Experiments:
# Type in all cases: functional
# Bacillus subtilis [1] = assay: Antibacterial activity against Bacillus subtilis 1046 in presence of 100 mM Ca2+
# Bacillus subtilis [2] = assay: Antibacterial activity against Bacillus subtilis 1046 in presence of 5 mM Ca2+
# Bacillus subtilis [3] = assay: Antibacterial activity against Bacillus subtilis 1046 in presence of 1.8 mM Ca2+
SMILES,MIC (Bacillus subtilis [1]),MIC (Bacillus subtilis [2]),MIC (Bacillus subtilis [3])
CCCCCCCCCC(=O)N[C@@H](Cc1c[nH]c2ccccc12)C(=O)N[C@@H](CC(N)=O)C(=O)N[C@@H](CC(=O)O)C(=O)N[C@H]1COC(=O)[C@H](Cc2ccc(O)cc2)NC(=O)[C@H](CCC(=O)O)NC(=O)[C@@H](CO)NC(=O)CNC(=O)[C@H](CC(=O)O)NC(=O)[C@@H](C)NC(=O)[C@H](CC(=O)O)NC(=O)[C@H](CCCN)NC(=O)CNC1=O,1.3 µg/mL,35 µg/mL,
CCCCCCCCCC(=O)N[C@@H](Cc1c[nH]c2ccccc12)C(=O)N[C@@H](CC(N)=O)C(=O)N[C@@H](CC(=O)O)C(=O)N[C@H]1COC(=O)[C@H](Cc2c[nH]c3ccccc23)NC(=O)[C@H](CCC(=O)O)NC(=O)[C@@H](CO)NC(=O)CNC(=O)[C@H](CC(=O)O)NC(=O)[C@@H](C)NC(=O)[C@H](C)NC(=O)[C@H](CCCN)NC(=O)CNC1=O,> 100 µg/mL,> 100 µg/mL,> 100 µg/mL
"CCCCCCCCCC(=O)N[C@@H](Cc1c[nH]c2ccccc12)C(=O)NC(CC(N)=O)C(=O)N[C@@H](CC(=O)O)C(=O)N[C@@H]1C(=O)NCC(=O)N[C@@H](CCCN)C(=O)N[C@@H](CC(=O)O)C(=O)N[C@H](C)C(=O)N[C@@H](CC(=O)O)C(=O)NCC(=O)N[C@H](CO)C(=O)N[C@@H](C(C)CC(=O)O)C(=O)N[C@@H](CC(=O)c2ccccc2N)C(=O)O[C@@H]1C (single isomer, unassigned) [DAPTOMYCIN]",5 µg/mL,5 µg/mL,40 µg/mL
CCCCCCCCCC(=O)N[C@@H](Cc1c[nH]c2ccccc12)C(=O)N[C@H](CC(N)=O)C(=O)N[C@@H](CC(=O)O)C(=O)N[C@@H]1C(=O)NCC(=O)N[C@@H](CCCN)C(=O)N[C@@H](CC(=O)O)C(=O)N[C@H](C)C(=O)N[C@@H](CC(=O)O)C(=O)NCC(=O)N[C@H](CO)C(=O)N[C@@H]([C@H](C)CC(=O)O)C(=O)N[C@@H](CC(=O)c2ccccc2N)C(=O)O[C@@H]1C,0.5 µg/mL,0.75 µg/mL,1 µg/mL
CCCCCCCCCC(=O)N[C@@H](Cc1c[nH]c2ccccc12)C(=O)N[C@@H](CC(N)=O)C(=O)N[C@@H](CC(=O)O)C(=O)N[C@H]1COC(=O)[C@H](Cc2c[nH]c3ccccc23)NC(=O)[C@H](CCC(=O)O)NC(=O)[C@@H](CO)NC(=O)CNC(=O)[C@H](CC(=O)O)NC(=O)[C@@H](C)NC(=O)[C@H](CC(=O)O)NC(=O)[C@H](CCCN)NC(=O)CNC1=O,1.5 µg/mL,1.5 µg/mL,5 µg/mL
